Test results taken from patent US10494683B2, “Nitrate- and nitrite-reducing probiotic feed additive” (The United States of America, as represented by the …, priority 2015, dated 2019).

Experiments:
[1] = test system: mixed ruminal microorganisms; experiment: CH4 production in vitro with mixed ruminal microorganisms; type: cell-based
[2] = test system: Holstein steers; experiment: Ruminally cannulated steers given NaNO3 with or without strain NRRL 67118; type: in vivo; settings: rumen samples of treated steers incubated in vitro

Row | Compound | CH4 production [1] | dCH4/dt ([2]; 83 mg NaNO3/kg body weight daily, Control 4.13) [b umol/ml per h] | Nitrate reduction ([2]; Control 0.42) [e mM/hr] | Nitrite reduction ([2]; Control 1.21) [c mM/hr]
1 | O=N[O-].[Na+] [NO2, NaNO2] | zero |  |  | 
2 | O=[N+]([O-])[O-].[Na+] [NO3, NaNO3] |  | 2.22 | 0.54 | 1.38
